57 compounds from PubChem BioAssay AID602166 (The Scripps Research Institute Molecular Screening Center, 2012) can be followed below.

Molecules are shown by their SMILES. The source made the active and inactive calls. How the calls were made is not given here. A value given as a limit tells only on which side of the number the result lay.

This test deals with Nuclear receptor coactivator 3 (Homo sapiens) (UniProt Q9Y6Q9). Description: SRC3 coactivator transcriptional activity inhibitors, dose response, cell-based, luminescence (AID 602166).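 Further: potency for reduction of SRC3 reporter signal so compounds are inhibitors.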 The settings on record: SRC3 luciferase reporter cell assay. On the technique in general: A reporter such as luciferase makes a cellular process visible.
Sequence of Nuclear receptor coactivator 3 (Homo sapiens) (Q9Y6Q9 whole entry, looked up): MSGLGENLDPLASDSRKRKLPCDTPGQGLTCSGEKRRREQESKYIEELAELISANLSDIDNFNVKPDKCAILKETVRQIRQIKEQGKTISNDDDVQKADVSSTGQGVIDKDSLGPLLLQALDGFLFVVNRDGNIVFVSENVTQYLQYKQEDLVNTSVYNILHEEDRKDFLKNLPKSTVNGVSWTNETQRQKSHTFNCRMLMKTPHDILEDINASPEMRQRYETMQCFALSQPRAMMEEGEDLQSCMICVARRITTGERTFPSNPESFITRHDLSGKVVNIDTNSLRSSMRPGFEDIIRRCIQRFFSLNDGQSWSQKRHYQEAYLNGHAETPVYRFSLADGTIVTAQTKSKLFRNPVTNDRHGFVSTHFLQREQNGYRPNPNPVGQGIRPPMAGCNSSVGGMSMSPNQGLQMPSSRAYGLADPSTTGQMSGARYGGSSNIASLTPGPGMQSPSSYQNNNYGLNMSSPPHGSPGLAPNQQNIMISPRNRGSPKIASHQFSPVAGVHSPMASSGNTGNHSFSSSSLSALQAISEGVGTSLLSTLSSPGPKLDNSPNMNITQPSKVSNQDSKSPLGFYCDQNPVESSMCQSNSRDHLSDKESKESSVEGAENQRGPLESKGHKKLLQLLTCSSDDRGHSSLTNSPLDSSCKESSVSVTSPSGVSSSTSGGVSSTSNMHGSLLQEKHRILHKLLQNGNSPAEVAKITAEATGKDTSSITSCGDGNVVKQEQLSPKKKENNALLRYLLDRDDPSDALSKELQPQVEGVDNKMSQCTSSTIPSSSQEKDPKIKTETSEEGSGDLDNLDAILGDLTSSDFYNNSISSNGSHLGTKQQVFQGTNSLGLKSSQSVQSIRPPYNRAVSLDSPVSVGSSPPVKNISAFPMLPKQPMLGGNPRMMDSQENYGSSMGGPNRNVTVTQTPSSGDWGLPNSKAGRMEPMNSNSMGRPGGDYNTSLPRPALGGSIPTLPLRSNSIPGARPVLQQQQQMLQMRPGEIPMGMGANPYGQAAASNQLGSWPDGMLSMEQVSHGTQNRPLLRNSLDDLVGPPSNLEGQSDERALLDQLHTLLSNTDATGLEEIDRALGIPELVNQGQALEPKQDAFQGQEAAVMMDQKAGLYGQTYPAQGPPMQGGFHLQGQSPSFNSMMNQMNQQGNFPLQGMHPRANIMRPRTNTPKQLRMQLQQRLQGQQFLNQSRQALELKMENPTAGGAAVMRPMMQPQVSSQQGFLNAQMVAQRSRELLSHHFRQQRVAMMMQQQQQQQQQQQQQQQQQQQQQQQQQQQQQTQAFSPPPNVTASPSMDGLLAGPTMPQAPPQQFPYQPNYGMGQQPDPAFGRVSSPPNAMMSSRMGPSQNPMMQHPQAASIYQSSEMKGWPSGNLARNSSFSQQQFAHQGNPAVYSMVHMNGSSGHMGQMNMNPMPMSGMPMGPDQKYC
Consider `O=c1[nH]c2ccccc2n1C1CCN(C(c2ccccc2)c2nnnn2Cc2ccccc2)CC1` (configuration not stated), for which the IC50 result is “inactive”.

Consider `COc1ccc(COC(=O)C2=C(C)NC(=O)NC2c2ccc(F)cc2)cc1` (configuration not stated), for which the IC50 was 7.71 µM. As for `Cc1cc2nccc(-c3ccncc3)n2n1`, the entry is “inactive”; as for `C=CS(=O)(=O)N(Cc1ccc(Cl)c(Cl)c1)C[C@@H](O)CO`, 6.97 µM; as for `Cn1cnc([N+](=O)[O-])c1Sc1nc(N)nc2c1ncn2C1OC(CO)C(O)C1O` (configuration not stated), 6.37 µM. As for `Oc1ccc(C=NNc2ccccn2)c(O)c1`, the entry is “inactive”.

For `C/C(=N\NC(=S)Nc1cc(S(=O)(=O)N2CCOCC2)ccc1Cl)c1ccccc1F`, the IC50 is > 35.9 µM (inactive). As for `Cc1nc([N+](=O)[O-])c(Sc2nc3ccccc3n2C)n1Cc1ccccc1`, the entry is “inactive”; as for `OCCN1CCN(C(=S)c2ccc(-c3ccccc3)cc2)CC1`, 4.57 µM; as for `COC(CN(C(=O)CCl)C(C(=O)NC1CCCCC1)c1ccccc1C)OC` (configuration not stated), 6.18 µM. In the case of `Cc1ccc(OCC(=O)c2cc(C)n(-c3ccccc3)c2C)c([N+](=O)[O-])n1` it was “inactive”; in that of `Nc1nccc(-c2ccc(-n3cnc4ccccc43)cc2)n1`, 1.91 µM. In the case of `COc1cccc2c1C(=N)c1c(O)c3c(c(O)c1C2=O)CC(O)(C(C)=O)CC3OC1CC(N)C(O)C(C)O1` (configuration not stated) it was > 35.9 µM (inactive); in that of `COc1cccc(CNc2ncnc3ccc(-c4c(C)noc4C)cc23)c1`, “inactive”. As to `O=[N+]([O-])c1nn(-c2ccc3c(c2)OCCO3)n(O)c1=Nc1ccccc1`, the half-inhibitory concentration (IC50) is 1.08 µM.

Regarding `COc1ccc(/C=C2\CC/C(=C\c3ccc(OC)c(OC)c3)C2=O)cc1OC`, the IC50 is 6.33 µM. For the compound `CCCc1c(C)nc2ccccc2c1SCCC#N`, the IC50 was 7.93 µM.

Turning to `CCOc1ccc(CC(=O)Nc2ccc(NC(=O)c3ccco3)cc2)cc1OCC`, the IC50 was 4.24 µM. In the case of `Cc1ccc(N=c2c([N+](=O)[O-])nn(-c3ccc4c(c3)OCCO4)n2O)cc1F` it was 8.48 µM; in that of `Cc1ccc(NC(=O)c2cc(C)n(-c3ccccc3)c2C)cc1`, > 35.9 µM (inactive). In the case of `C(=N\Nc1nc2ccccc2[nH]1)/c1cccc2cccnc12`, the IC50 is 9.18 µM. In the case of `Cc1c(/C(O)=C2/C(=O)C(=O)N(Cc3cccnc3)C2c2ccccn2)cnn1-c1ccccc1` (configuration not stated) it was > 35.9 µM (inactive); in that of `O=c1[nH]cnc2c1nnn2C1OC(CO)C(O)C1O` (configuration not stated), 4.66 µM. As for `C=CCn1c(C)cc(C(=O)COc2ccc(C)nc2[N+](=O)[O-])c1C`, the figure is > 35.9 µM (inactive); as for `C=C1C(=O)[C@]23C[C@H]1CCC2[C@@]1(C)C(C[C@@H]3O)[C@](C)(C(=O)OC)CC[C@@H]1O` (some centres not stated), 8.33 µM. As for `CCOC(=O)CC(=O)CSc1nccc(-c2cccnc2)n1`, the entry is “inactive”; as for `Cc1c(Cl)cccc1NC(=O)Nc1ccccc1C(N)=O`, > 35.9 µM (inactive).

As for `Cc1cccc(C)c1NS(=O)(=O)c1ccc(-c2cnc(C3CC3)o2)cc1`, the IC50 result is “inactive”. In the case of `Nc1nc2c(nnn2C2CC(O)C(CO)O2)c(=O)[nH]1` (configuration not stated) it was 7.87 µM.

Consider `CCCS(=O)(=O)Nc1ccc(Nc2c3ccccc3nc3ccccc23)c(OC)c1`, for which the 50% inhibitory concentration (IC50) is 0.605 µM. Regarding `CCN(C(C)=O)c1cnc(C=NNC(N)=S)c2ccccc12`, the half-inhibitory concentration (IC50) was 4.67 µM. In the case of `COC(=O)c1cccc2c1-c1ccccc1/C2=N/O` it was 2.35 µM. As for `CS(=O)c1nc(-c2ccc(Br)cc2)cc(-c2ccccc2)c1C#N` (configuration not stated), the entry is “inactive”.

On to `Cc1ccc(-n2c(Cl)c(Cl)nc(Cl)c2=O)cc1`, for which the IC50 entry was “inactive”. Regarding `CCn1ccnc1CN(C)Cc1cn[nH]c1-c1ccc(OC)c(F)c1`, the half-maximal inhibitory concentration (IC50) is 4.91 µM. In the case of `O=C(Nc1cccnc1)c1ccc(C(=O)Nc2cccnc2)cc1` it was > 35.9 µM (inactive). In the case of `COc1ccccc1C(=O)N(CCC1CCCN1C)c1nc2ccccc2s1` (configuration not stated) it was > 35.9 µM (inactive); in that of `O=C(Nc1cccc(C(F)(F)F)c1)Nc1nnc([C@@H]2C[C@H](O)[C@@H](CO)O2)s1`, 5.86 µM; in that of `CCCCN1C=CC(=C2C(=O)c3ccccc3C2=O)C=C1`, 4.47 µM. On to `COc1cc(/C=C(/C(=O)c2cccs2)c2nc3ccccc3[nH]2)cc(OC)c1O`, for which the IC50 was > 35.9 µM (inactive). As for `O=C(N/N=C\c1ccc([N+](=O)[O-])o1)C1COc2ccccc2O1` (configuration not stated), the IC50 is > 35.9 µM (inactive). Regarding `NC(=O)c1cc(Sc2ccccc2)nc2ccccc12`, the IC50 was 3.53 µM. In the case of `CC(=O)N1CCN(c2ncnc3ccccc23)CC1` it was 8.94 µM; in that of `Cc1ccc2occ(/C=N/NC(=O)[C@@H](N)Cc3ccccc3)c(=O)c2c1`, 9.86 µM. As for `Cc1nc2c(-c3ccc(Cl)cc3)cnn2c(N)c1-c1ccc(F)cc1`, the figure is > 35.9 µM (inactive); as for `CC(=O)Nc1ccc(SCC(=O)c2cc(C)n(-c3ccccc3F)c2C)cc1`, > 35.9 µM (inactive); as for `CCOc1cc(/C=C2\CCC/C(=C\c3cc(Cl)c(O)c(OCC)c3)C2=O)cc(Cl)c1O`, > 35.8 µM (inactive). In the case of `O=c1[nH]c2ccccc2n1C1CCN(C(c2ccccc2)c2nnnn2-c2ccc3c(c2)OCCO3)CC1` (configuration not stated), the IC50 result was “inactive”. As for `CO[C@@]12[C@@H]3N[C@@H]3CN1C1=C(C(=O)C(N)=C(C)C1=O)[C@@H]2COC(N)=O`, the figure is > 35.8 µM (inactive). As for `Cc1ccc2occ(/C=N/NC(=O)c3ccccc3Br)c(=O)c2c1`, the entry is “inactive”; as for `CCOc1cc(C(N)=O)cc(Br)c1OC`, 5.79 µM. In the case of `Cc1cccc2sc(NNC(=O)c3ccc(S(=O)(=O)N4CC(C)CC(C)C4)cc3)nc12` (configuration not stated) it was 5.91 µM; in that of `O=C(CC1CS(=O)(=O)CC1CC(=O)Nc1ccc2c(c1)OCCO2)Nc1ccc2c(c1)OCCO2` (configuration not stated), > 35.9 µM (inactive); in that of `CCC(=O)N1CCN(c2ccnc3cc(Cl)ccc23)CC1`, 8.04 µM.

In the case of `COc1cc2c(c(OC)c1OC)-c1ccc(SC)c(=O)cc1C(NC=O)CC2` (configuration not stated), the IC50 entry was “inactive”. Turning to `O=C(OCc1ccccc1)c1ccc(NCc2cc(O)ccc2O)cc1`, the IC50 result was “inactive”. As for `Clc1ccc(-c2csc3ncnc(NCCN4CCOCC4)c23)cc1`, the figure is 8.15 µM.

In general, IC50 refers to the concentration that gives 50% inhibition.
